“And” between values parts separate entries of the source, which are not always exact repeats. Identical values can stand only once. Where only a bound is given, the exact number is not on record here.

A short description of data set [1]: Storage stability of the unlabeled compound. Type of data set: physicochemical.
The target in another data set is T1, recombinant human PSMA (Homo sapiens, UniProt Q04609).
T1 construct: purchased R&D systems, Abingdon, UK
In words: fluorescence-based NAALADase enzymatic assay. The note with it: for IC50: rhPSMA, NAAG substrate, three assays in triplicate, read-out: IC50 (affinity to PSMA). Format: biochemical. On the procedure:
The assay buffer (50 mM HEPES, 0.1 M NaCl, pH 7.5) was used to dilute the recombinant human PSMA (rhPSMA, R&D systems, Abingdon, UK) to 0.4 µg/mL, as well as the enzymatic substrate Ac-Asp-Glu (NAAG) (40 μM in assay buffer). 3p-C-NETA-ePSMA-16 and an internal reference, PSMA-617, were dissolved in assay buffer at concentrations ranging from 10^−5 to 10^−12 M. 6.25 µL of the compound were incubated with 6.25 µL of the substrate to which 12.5 µL of rhPSMA solution was added, and incubated for 1 h at 37 °C in 384-well black polystyrene microplates. Next, 25 µL of a working solution of the Amplex Red glutamic acid kit (ThermoFisher, Bleiswijk, The Netherlands) was added and incubated at 37 °C for 30 min to measure glutamate released. A HIDEX Sense Optical System (HIDEX, Goedereede, The Netherlands) was used to measure the fluorescence, with excitation set at 535 nm and emission at 590 nm. Assays were performed in triplicate and as three separate replicates. Data were normalized and analyzed using a one-site total binding regression algorithm from GraphPad Prism 9 (GraphPad Software, Boston, MA, USA).

For data set [2] the following is noted: radiolabeled with 88Y, 177Lu and 205/206Bi; cited from earlier work.
Data set [3] concerns PSMA+ LS174T tumor xenografts. Description: SPECT/CT imaging in LS174T tumor-bearing mice. Format: in vivo, mouse. Conditions: 1 h p.i. On the procedure:
(§1) We housed 8–10 weeks old male BALB/c nude mice (BALB/cAnN Rj-Nude; Janvier Labs, Le Genest-Saint-Isle, France) in individually ventilated cages (Blue line IVC, 2 mice per cage). Sterile standard conditions were employed with the presence of cage enrichment and unlimited access to water and animal chow (Sniff GmbH). Acclimatization was realized 1 week before the beginning of the experiments. Mice were subcutaneously inoculated in their right flank with LS174T cells (4.0 × 10^6) diluted in 100 µL of cell suspension. Tumors grew to an average volume of 217.8 ± 9.4 mm^3 in 7 days (average weight of 217 ± 14.4 mg), and mice were grouped non-blinded to afford homogenous tumor size distribution intra-groups. […] All experiments were in accordance with the guidelines of the Revised Dutch Act on Animal Experimentation (WOD).
At 1 and 24 h p.i., mice were placed under 2% isoflurane/O2 anesthesia on a heated bed and imaged in a dedicated small-animal PET/SPECT/CT scanner (VECTor5CT scanner, MILabs B.V., Utrecht, The Netherlands) equipped with a high sensitivity pinhole collimator (XXUHS-M, 3.00 mm pinhole diameter). […] The CT and registered attenuation-corrected SPECT images were analyzed using IMALYTICS Preclinical 3.0 (Gremse-IT GmbH, Aachen, Germany).

The test system of data set [4] is PSMA+ LS174T tumor xenografts. Description: Ex vivo biodistribution in LS174T tumor-bearing BALB/c nude mice. Set-up: species or system mouse. On the procedure:
as §1
Mice (n = 4/group) were euthanized via cervical dislocation at 1, 4, and 24 h post-injection (p.i.). A block group (n = 4) containing a 50-fold excess of 3p-C-NETA-ePSMA-16 was also included in the study (euthanized at 4 h p.i.). Tissues were collected in tubes, weighted, and counted in the gamma counter.

Data set [5] in a line: Transchelation/challenge study with excess EDTA. Type of data set: physicochemical. Conditions: 37 °C, 24 h. On the procedure:
Samples were analyzed by iTLC at 1, 4, and 24 h after incubation to determine the percentage (%) of intact radioligand [16].

For the next data set, the system named is LS174T PSMA+ cells. In words: Cell uptake and internalization assay. Type of data set: cell-based, human. As to the method: LS174T human colon carcinoma cells transfected with human PSMA were provided by Dr. Sandra Heskamp (Radboudumc, Nijmegen, The Netherlands). RPMI-1640 media supplemented with 2 mM glutamine, 10% fetal bovine serum (FBS), and 0.3 mg/mL G418 (Geneticin, Sigma Aldrich, Burlington, MA, USA) was used to culture the cells. PC-3-Pip and PC-3-Flu cells were received from Prof. Martin G. Pomper (John Hopkins University, Baltimore, MD, USA).
LS174T cells were seeded (1.2 × 10^6 cells/well) and cultured to confluency 24 h prior to the experiments. […] Blocking experiments were also performed using a 50-fold excess of either PSMA-617 or 3p-C-NETA-ePSMA-16. The media was removed, and wells were then rinsed twice with PBS at rt. To each well, we added 2 mL of the radioactive compound, which was incubated at 37 °C for 2 h. Internalization assay: the media containing the radioactive compound was removed from each well, followed by two washes with 1 mL cold PBS. Glycine buffer (1 mL, 50 mM glycine, 100 mM NaCl, pH 2.8) was immediately added to the wells prior to incubation at rt for 10 min. The glycine wash and an additional wash were collected into counting tubes (membrane-bound fraction). NaOH (1 mL, 1 M) was added to each well for 15 min at rt. The internalized fraction (lysate) and an additional NaOH wash were collected in the same tubes. Data were normalized to the added dose per 1,000,000 cells (AD/10^6 cells) and represented as counts per minute (CPM).

The nature of data set [6]: LogD7.4 shake-flask method. Type of data set: physicochemical. Conditions: n-octanol/PBS pH 7.4, n = 3. On the procedure: The distribution coefficient (LogD7.4) was determined by a shake-flask method in triplicate. […] The mixture was vortexed vigorously and then centrifuged at 5000× g for 15 min for phase separation. Samples of the two phases (3 × 10 μL) were taken out and measured using a PerkinElmer Wizard 2 γ-counter. LogD7.4 values were calculated using the following equation: LogD7.4 = log [(counts in octanol phase)/(counts in aqueous phase)] [34].

The mark [7] stands for this setting: 4 h p.i., block (50-fold excess unlabeled).

T1 sequence (Q04609 whole entry): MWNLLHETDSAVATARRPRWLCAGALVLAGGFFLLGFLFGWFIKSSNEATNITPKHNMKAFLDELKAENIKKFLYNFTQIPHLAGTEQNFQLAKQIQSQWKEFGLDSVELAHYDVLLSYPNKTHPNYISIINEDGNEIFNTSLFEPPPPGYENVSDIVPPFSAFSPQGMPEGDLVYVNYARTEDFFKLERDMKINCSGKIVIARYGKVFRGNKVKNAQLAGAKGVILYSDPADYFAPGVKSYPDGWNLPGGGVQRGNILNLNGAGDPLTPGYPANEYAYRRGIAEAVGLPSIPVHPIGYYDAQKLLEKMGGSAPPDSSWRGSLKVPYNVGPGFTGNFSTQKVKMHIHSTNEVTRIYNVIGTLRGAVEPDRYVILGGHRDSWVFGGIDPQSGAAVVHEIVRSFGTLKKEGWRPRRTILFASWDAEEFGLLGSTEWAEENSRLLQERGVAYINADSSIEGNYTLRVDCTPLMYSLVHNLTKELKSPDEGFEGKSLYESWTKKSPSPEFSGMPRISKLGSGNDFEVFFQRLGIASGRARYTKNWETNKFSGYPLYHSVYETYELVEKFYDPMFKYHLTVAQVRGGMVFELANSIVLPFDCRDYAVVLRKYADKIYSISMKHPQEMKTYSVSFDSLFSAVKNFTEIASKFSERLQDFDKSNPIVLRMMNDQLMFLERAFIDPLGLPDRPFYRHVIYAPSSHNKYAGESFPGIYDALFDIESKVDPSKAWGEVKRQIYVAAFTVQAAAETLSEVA

Regarding `CC(C)CC(NC(=O)C(Cc1ccccc1)NC(=O)C(CC(=O)O)NC(=O)CCC(=O)Nc1ccc(CCCC(CN2CCN(CC(=O)O)CCN(CC(=O)O)CC2)N(CC(=O)O)CC(=O)O)cc1)C(O)CC(=O)NCCCCCC(=O)NCCCCC(NC(=O)NC(CCC(=O)O)C(=O)O)C(=O)O` (stereo not drawn) [3p-C-NETA-ePSMA-16, EuK(Ahx-Sta-Phe-Asp-3p-C-NETA)], the storage stability in data set [1] (stored as a lyophilized powder) is greater than 1 year; in data set [1] (stored as an aqueous solution) it was greater than 6 months. The IC50 (as a rule, the concentration at which inhibition is half-maximal) at recombinant human PSMA was found to be 4.61 ± 1.33 nM. Further, the “IC50 relative to reference PSMA-617 (fold higher IC50 / lower affinity)” value on recombinant human PSMA (vs PSMA-617) was determined as 5 fold.

Regarding `O=C(O)CC[C@H](NC(=O)N[C@@H](CCCCNC(=O)[C@H](Cc1ccc2ccccc2c1)NC(=O)[C@H]1CC[C@H](CNC(=O)CN2CCN(CC(=O)O)CCN(CC(=O)O)CCN(CC(=O)O)CC2)CC1)C(=O)O)C(=O)O` [PSMA-617, reference compound], at recombinant human PSMA, the IC50 is 0.78 ± 0.3 nM.

`O=C(O)CN1CCN(CC(=O)O)CCN(CC(CCCc2ccc([N+](=O)[O-])cc2)N(CC(=O)O)CC(=O)O)CC1` (centres unmarked) [3p-C-NETA]: the “stability in serum in vitro” value in data set [2] is “highly stable in serum in vitro for up to 11 days”.

Turning to `CC(C)C[C@H](NC(=O)[C@H](Cc1ccccc1)NC(=O)[C@H](CC(=O)O)NC(=O)CCC(=O)Nc1ccc(CCCC(CN2CCN(CC(=O)[O-])CCN(CC(=O)[O-])CC2)N(CC(=O)[O-])CC(=O)O)cc1)[C@@H](O)CC(=O)NCCCCCC(=O)NCCCC[C@H](NC(=O)N[C@@H](CCC(=O)O)C(=O)O)C(=O)O.[111In+3]` (some centres unmarked) [[^111In]In-3p-C-NETA-ePSMA-16], the “tumor signal in SPECT/CT” value in data set [3] was “faint signal”. In data set [4] (1 h p.i.), this molecule gave a Blood uptake of 0.26 ± 0.19 % ID/g, a Bone uptake of 0.20 ± 0.05 % ID/g, a Heart uptake of 0.15 ± 0.05 % ID/g and an Intestines uptake of 0.59 ± 0.13 % ID/g. Moreover, in data set [4] (1 h p.i.), the Kidney uptake is 26.70 ± 2.12 % ID/g, the Liver uptake came to 0.20 ± 0.03 % ID/g, the Lung uptake was determined as 0.45 ± 0.10 % ID/g and the Muscle uptake was 0.13 ± 0.09 % ID/g. In data set [4] (1 h p.i.), this molecule yielded a Pancreas uptake of 0.23 ± 0.05 % ID/g, a Prostate uptake of 1.08 ± 0.41 % ID/g, a Skin uptake of 0.46 ± 0.15 % ID/g and a Spleen uptake of 1.28 ± 0.49 % ID/g. In data set [4] (1 h p.i.), this molecule showed a Stomach uptake of 0.31 ± 0.21 % ID/g and a Tumor uptake of 1.62 ± 0.55 % ID/g. For the same molecule, in data set [4] (4 h p.i.), the Blood uptake is 0.01 ± 0.01 % ID/g, the Bone uptake was 0.03 ± 0.00 % ID/g, the Heart uptake came out at 0.02 ± 0.00 % ID/g and the Intestines uptake was 0.60 ± 0.28 % ID/g. In data set [4] (4 h p.i.), this molecule had a Kidney uptake of 11.62 ± 0.62 % ID/g, a Liver uptake of 0.07 ± 0.01 % ID/g, a Lung uptake of 0.06 ± 0.01 % ID/g and a Muscle uptake of 0.04 ± 0.00 % ID/g. In data set [4] (4 h p.i.), the Pancreas uptake was determined as 0.03 ± 0.00 % ID/g, the Prostate uptake amounted to 0.12 ± 0.07 % ID/g, the Skin uptake was found to be 0.24 ± 0.15 % ID/g and the Spleen uptake is listed as 0.12 ± 0.01 % ID/g. Moreover, in data set [4] (4 h p.i.), the Stomach uptake was 0.05 ± 0.02 % ID/g and the Tumor uptake turned out to be 0.89 ± 0.58 % ID/g. Moreover, in data set [4] (setting [7]), the Blood uptake worked out at 0.01 ± 0.00 % ID/g, the Bone uptake is 0.03 ± 0.01 % ID/g, the Heart uptake amounted to 0.02 ± 0.00 % ID/g and the Intestines uptake came to 0.68 ± 0.02 % ID/g. In data set [4] (setting [7]), this molecule gave a Kidney uptake of 9.53 ± 1.66 % ID/g, a Liver uptake of 0.07 ± 0.01 % ID/g, a Lung uptake of 0.05 ± 0.01 % ID/g and a Muscle uptake of 0.02 ± 0.01 % ID/g. For the same molecule, in data set [4] (setting [7]), the Pancreas uptake was found to be 0.02 ± 0.01 % ID/g, the Prostate uptake is on record as 0.07 ± 0.02 % ID/g, the Skin uptake came to 0.13 ± 0.02 % ID/g and the Spleen uptake was determined as 0.05 ± 0.01 % ID/g. Further, in data set [4] (setting [7]), the Stomach uptake is reported as 0.15 ± 0.10 % ID/g and the Tumor uptake is listed as 0.12 ± 0.04 % ID/g. In data set [4] (24 h p.i.), this molecule returned a Bone uptake of 0.02 ± 0.00 % ID/g, a Heart uptake of 0.01 ± 0.00 % ID/g, an Intestines uptake of 0.04 ± 0.02 % ID/g and a Kidney uptake of 4.27 ± 0.87 % ID/g. Further, in data set [4] (24 h p.i.), the Liver uptake was determined as 0.03 ± 0.00 % ID/g, the Lung uptake came out at 0.02 ± 0.00 % ID/g, the Muscle uptake came out at 0.01 ± 0.00 % ID/g and the Pancreas uptake stood at 0.01 ± 0.00 % ID/g. In data set [4] (24 h p.i.), this molecule displayed a Prostate uptake of 0.04 ± 0.01 % ID/g, a Skin uptake of 0.10 ± 0.06 % ID/g, a Spleen uptake of 0.03 ± 0.00 % ID/g and a Stomach uptake of 0.01 ± 0.00 % ID/g. In data set [4] (24 h p.i.), this molecule showed a Tumor uptake of 0.12 ± 0.02 % ID/g. Moreover, the “intact radioligand in transchelation challenge” value in data set [5] was 93.2 ± 0.7% and > 90%. In the data set on LS174T PSMA+ cells, this molecule yielded a total cell uptake of 1.41 ± 0.20 % ID/10^6 cells. For the same molecule, in the data set with LS174T PSMA+ cells (10^−9 M, 2 h, 37 °C), the internalized fraction is 0.50 ± 0.16 % AD/10^6 cells and the membrane-bound fraction amounted to 0.90 ± 0.05 % AD/10^6 cells. The “cell uptake in the blocked group” value in the data set on LS174T PSMA+ cells (50-fold excess of unlabeled compound) is on record as “no uptake”. Further, the logD (commonly lipophilicity at a set pH, counting ionised and neutral species) in data set [6] is recorded as −2.95 ± 0.19.

The record behind these values is article PMC10301001, “Radiochemical and Biological Evaluation of 3p-C-NETA-ePSMA-16, a Promising PSMA-Targeting Agent for Radiotheranostics” (Pharmaceuticals, 2023).
